Residue numbers refer to the chain shown, from its start. Several values for one entry are separate records, joined by “and”; a condition that tells them apart may be missing. Identical values can stand only once. Like-named read-outs stand apart in the source and are kept apart here.
Assays:
5-HT3A receptors [1] = target: T1, 5-HT3A receptors (Mus musculus, UniProt P23979); details: discussion; compound not tested in this paper; no reference given; cited from earlier work
T1 construct: expressed in transfected cells; host or cells: Xenopus laevis oocytes injected with cRNA (pGEMHE)
T1 sequence (P23979 24-489): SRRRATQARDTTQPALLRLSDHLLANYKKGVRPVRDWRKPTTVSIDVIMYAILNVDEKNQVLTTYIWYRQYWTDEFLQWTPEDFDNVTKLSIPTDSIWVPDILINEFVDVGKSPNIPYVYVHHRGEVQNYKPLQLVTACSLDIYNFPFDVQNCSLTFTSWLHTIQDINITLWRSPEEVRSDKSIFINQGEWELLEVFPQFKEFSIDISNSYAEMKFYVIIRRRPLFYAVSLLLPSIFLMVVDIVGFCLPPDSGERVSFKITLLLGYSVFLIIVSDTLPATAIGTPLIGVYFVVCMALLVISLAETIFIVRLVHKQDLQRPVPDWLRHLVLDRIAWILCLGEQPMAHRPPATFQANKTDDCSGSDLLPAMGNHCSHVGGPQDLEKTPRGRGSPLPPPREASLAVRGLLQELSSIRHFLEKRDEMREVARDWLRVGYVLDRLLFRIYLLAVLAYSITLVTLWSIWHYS

5-HT3A receptors [2] = target: T1, 5-HT3A receptors; assay: Agonist-induced currents in Xenopus oocytes expressing 5-HT3A receptors (OpusXpress electrophysiology); type: cell-based; details: for agonist character: 5-HT3A receptors; for Relative efficacy Rmax = Imax drug / Imax 5-HT: maximal concentration; for EC50: holding potential -60 mV; for EC50 relative to Ki: EC50 fold higher than Ki; for Rmax, approximate summary value: discussion, stated for 5-HT3 receptors (5-HT3A and 5-HT3AB) without distinction
Procedure: (§1) Harvested stage V–VI Xenopus oocytes were washed in six changes of ND96 (96 mM NaCl, 2 mM KCl, 1 mM MgCl2, 1.8 mM CaCl2, 5 mM HEPES, pH 7.5), de-folliculated in 1.5 mg ml^− 1 collagenase Type 1A for approximately 2 h. Enzyme treatment was terminated by washing in six changes of ND96 and oocytes were stored in ND96 containing 2.5 mM sodium pyruvate, […] and 0.7 mM theophylline.
(§2) Mouse 5-HT3A (accession number: AY605711) or 5-HT3B (accession number: NM_020274, kindly provided by Ewen Kirkness) subunit cDNAs were cloned into pGEMHE for oocyte expression ([Liman et al., 1992]). cRNA was in vitro transcribed from linearised (NheI) plasmid cDNA template using the mMessage mMachine T7 kit (Ambion, Austin, Texas, USA). Stage V and VI oocytes were injected with 50 ng–100 ng cRNA, and recorded from 1–4 days post-injection. For expression in HEK 293 cells, 5-HT3 receptor subunit cDNAs were cloned into pcDNA3.1 (Invitrogen Ltd., Paisley, UK.). Mutagenesis reactions were performed using the Kunkel method and confirmed by DNA sequencing. Cells were transfected using calcium phosphate precipitation at 80–90% confluency ([Jordan et al., 1996]). Following transfection cells were incubated for 3–4 days before assay.
(§3) Agonist-induced currents were recorded at 22–25 °C from individual oocytes using the OpusXpress system (Molecular Devices Axon Instruments, Union City, CA). […] The holding potential was − 60 mV.

5-HT3AB receptors [3] = target: T2, 5-HT3AB receptors (Mus musculus, UniProt P23979+Q9JHJ5); assay: [3H]granisetron binding to membranes of transfected HEK 293 cells, 5-HT3AB receptors
T2 construct: expressed in transfected cells; host or cells: Xenopus laevis oocytes injected with cRNA (pGEMHE)
T2 sequence (P23979 24-489): T1 sequence (P23979 24-489)
T2 sequence (Q9JHJ5 22-437): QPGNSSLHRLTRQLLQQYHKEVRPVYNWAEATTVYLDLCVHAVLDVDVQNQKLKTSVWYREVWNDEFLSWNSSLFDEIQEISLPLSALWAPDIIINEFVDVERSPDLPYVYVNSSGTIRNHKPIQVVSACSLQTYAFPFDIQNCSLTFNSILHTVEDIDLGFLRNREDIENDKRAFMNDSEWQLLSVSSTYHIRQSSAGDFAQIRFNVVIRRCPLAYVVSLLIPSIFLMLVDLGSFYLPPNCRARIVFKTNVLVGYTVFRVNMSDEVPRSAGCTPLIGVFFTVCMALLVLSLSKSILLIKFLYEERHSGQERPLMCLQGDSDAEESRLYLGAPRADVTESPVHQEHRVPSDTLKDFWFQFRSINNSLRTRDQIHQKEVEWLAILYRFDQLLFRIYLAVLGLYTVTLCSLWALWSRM
Procedure: as §2
(§4) This was undertaken in HEK 293 cells which provide an established and robust method of studying ligand binding. Methods were as previously described ([Lummis et al., 1993]), with minor modifications. Briefly, transfected HEK 293 cells were washed twice with phosphate buffered saline (PBS) at room temperature and scraped into 1 ml of ice-cold HEPES buffer (10 mM, pH 7.4) containing the following proteinase inhibitors (PI): 1 mM EDTA, 50 μg ml^− 1 soybean trypsin inhibitor, 50 μg/ml bacitracin and 0.1 mM phenylmethylsulphonyl fluoride. […] Competition binding was performed using ligand concentrations from 0.1 μM–10 mM. Reactions were incubated for at least 1 h at 4 °C and terminated by vacuum filtration using a Brandel cell harvester onto GF/B filters pre-soaked in 0.3% polyethyleneimine. Radioactivity was determined by scintillation counting using a Beckman LS6000SC (Fullerton, California, USA). Competition binding data were analyzed by iterative curve fitting (GraphPad Prism v3.02, GraphPad Software, San Diego, California, USA), according to the equation: y=Bmin+Bmax−Bmin/1+10^[L]−logIC50 where Bmin is the lowest total binding, Bmax is the maximum specific binding at equilibrium, [L] is the concentration of competing ligand and IC50 is the concentration of competing ligand that blocks half of the specific bound radioligand. Ki values were estimated from IC50 values using the Cheng–Prusoff equation: Ki=IC50/1+[L]/Kd
(§5) where Ki is the equilibrium dissociation constant for binding of the unlabeled antagonist, [L] is the concentration of radioligand and Kd is the equilibrium dissociation constant of the radioligand.

5-HT3A receptors [4] = target: T1, 5-HT3A receptors; assay: [3H]granisetron binding to membranes of transfected HEK 293 cells, 5-HT3A receptors; details: for Ki relative to the Ki for 5-HT: 5-HT3A receptors, fold greater than 5-HT; for Ki: WT 5-HT3A receptors, HEK 293 membranes, 0.5 nM [3H]granisetron, 4 °C
Procedure: as §2, §4, §5

[5] = target: T3, E236A mutant 5-HT3A receptors (Mus musculus, UniProt P23979, E236A); assay: [3H]granisetron competition binding, E236A mutant 5-HT3A receptors
T3 construct: expressed in transfected cells; host or cells: HEK 293 cells (pcDNA3.1); Kunkel mutagenesis
T3 sequence (P23979 24-489 E236A): T1 sequence (P23979 24-489) with E213A
Procedure: as §2, with “Cells were transfected using calcium phosphate precipitation at 80–90% confluency ([Jordan et al., 1996]). Following transfection cells were incubated for 3–4 days before assay.” left out
(§6) This was undertaken in HEK 293 cells which provide an established and robust method of studying ligand binding. […] Radioactivity was determined by scintillation counting using a Beckman LS6000SC (Fullerton, California, USA). Competition binding data were analyzed by iterative curve fitting (GraphPad Prism v3.02, GraphPad Software, San Diego, California, USA), according to the equation: y=Bmin+Bmax−Bmin/1+10^[L]−logIC50 where Bmin is the lowest total binding, Bmax is the maximum specific binding at equilibrium, [L] is the concentration of competing ligand and IC50 is the concentration of competing ligand that blocks half of the specific bound radioligand. […]

5-HT3AB receptors [6] = target: T2, 5-HT3AB receptors; assay: Agonist-induced currents in Xenopus oocytes expressing 5-HT3AB receptors (OpusXpress electrophysiology); type: cell-based; details: for agonist character: 5-HT3AB receptors; for Relative efficacy Rmax = Imax drug / Imax 5-HT: maximal concentration; for EC50: holding potential -60 mV
Procedure: as §1, §2, §3

[7] = target: T4, N128A mutant 5-HT3A receptors (Mus musculus, UniProt P23979, N128A); assay: [3H]granisetron competition binding, N128A mutant 5-HT3A receptors
T4 construct: expressed in transfected cells; host or cells: HEK 293 cells (pcDNA3.1); Kunkel mutagenesis
T4 sequence (P23979 24-489 N128A): T1 sequence (P23979 24-489) with N105A
Procedure: as §2, with “Cells were transfected using calcium phosphate precipitation at 80–90% confluency ([Jordan et al., 1996]). Following transfection cells were incubated for 3–4 days before assay.” left out
as §6

[8] = 5-HT3A receptors in Xenopus oocytes
[9] = EC50, 5-HT3A receptors in Xenopus oocytes
[10] = Ki, displacement of [3H]granisetron binding
[11] = 5-HT3AB receptors in Xenopus oocytes
[12] = 5-HT3AB receptors in Xenopus oocytes, read-out: EC50
[13] = 5-HT3AB receptors, HEK 293 membranes, 0.5 nM [3H]granisetron, 4 °C, read-out: Ki, displacement of [3H]granisetron binding
[14] = read-out: Ki, displacement of [3H]granisetron binding

| Compound | agonist character (5-HT3A receptors [2]) | Relative efficacy Rmax = Imax drug / Imax 5-HT (5-HT3A receptors [2]; [8]) | EC50 (5-HT3A receptors [2]; [9]) | Ki (5-HT3AB receptors [3]) | Ki relative to the Ki for 5-HT (5-HT3A receptors [4]) | Ki (5-HT3A receptors [4]; [10]) | nH (Hill slope) (5-HT3A receptors [2]; [8]) | Rmax, approximate summary value (5-HT3A receptors [2]) | agonist character (5-HT3AB receptors [6]) | nH (Hill slope) (5-HT3AB receptors [6]; [11]) | Relative efficacy Rmax = Imax drug / Imax 5-HT (5-HT3AB receptors [6]; [11]) | other results |
| --- | --- | --- | --- | --- | --- | --- | --- | --- | --- | --- | --- | --- |
| Cc1[nH]c2ccc(O)cc2c1CCN [2-methyl-5-HT] | – | – | – | – | – | – | – | – | – | – | – | Rmax, approximate value (5-HT3A receptors [1]): ~0.2 |
| NCCc1c[nH]c2ccc(Cl)cc12 [5-ClT, 5-chlorotryptamine] | very weak partial agonist | 0.0037 | 8.1 µM and 8 µM | 3.1 ± 1.1 µM | ~10 fold | 2.7 ± 0.7 µM | – | – | – | – | – | EC50 relative to Ki (5-HT3A receptors [2]): less than 5 fold |
| NCCc1c[nH]c2ccc(F)cc12 [5-FT, 5-fluorotryptamine] | partial agonist | 0.64 and 0.64 ± 0.03 | 16 µM | 1.8 ± 0.4 µM | ~10 fold | 0.8 µM and 0.83 µM | 2.4 and 2.4 ± 0.5 | ~0.5 | partial agonist | 1.4 and 1.4 ± 0.3 | 0.45 and 0.45 ± 0.04 | Ki [5]: 1.62 ± 0.41 µM; EC50 (5-HT3AB receptors [6]; EC50, 5-HT3AB receptors in Xenopus oocytes): 27 µM; Ki [7]: 2.43 ± 0.47 µM |
| NCCc1c[nH]c2ccc(O)cc12 [5-HT] | – | – | – | – | – | – | – | – | – | 1.4 and 1.4 ± 0.4 | – | – |
| COc1ccc2[nH]cc(CCN)c2c1 [5-MeOT, 5-methoxytryptamine] | – | – | – | 21.7 ± 2.1 µM | ~300 fold | 34.9 ± 3 µM | – | – | – | – | – | activation of 5-HT3 receptors (5-HT3A receptors [2]; concentrations up to 10 mM, examined in 5-HT3A receptors): unable to activate |
| Cc1ccc2[nH]cc(CCN)c2c1 [5-MeT, 5-methyltryptamine] | very weak partial agonist | 0.0023 | 60 ± 3 µM | 7.7 ± 1.1 µM | ~100 fold | – | – | – | – | – | – | EC50 relative to Ki (5-HT3A receptors [2]): less than 5 fold |
| N=C(N)NC(=N)Nc1cccc(Cl)c1 [mCPBG, m-chlorophenylbiguanide] | partial agonist | 0.74 ± 0.07 | – | – | – | – | 2.3 and 2.3 ± 0.4 | ~0.8 | full agonist | 1.6 and 1.6 ± 0.4 | 0.92 ± 0.09 | EC50 (5-HT3A receptors [2]; 5-HT3A receptors in Xenopus oocytes, read-out: EC50): 0.5 µM; EC50 (5-HT3AB receptors [6]; [12]): 1.1 µM; Ki (5-HT3AB receptors [3]; [13]): 0.012 ± 0.004 µM; Ki (5-HT3A receptors [4]; [14]): 0.01 ± 0.003 µM |
| NCCc1c[nH]c2ccccc12 [tryptamine] | partial agonist | 0.15 | – | – | ~50 fold | – | 2.5 and 2.5 ± 0.5 | ~0.15 | partial agonist | 1.8 and 1.8 ± 0.5 | 0.14 ± 0.02 | EC50 (5-HT3A receptors [2]; 5-HT3A receptors in Xenopus oocytes, mean ± SEM, read-out: pEC50 (converted)): 123 µM; Relative efficacy Rmax = Imax drug / Imax 5-HT (5-HT3A receptors [2]; 5-HT3A receptors in Xenopus oocytes, listed as Tryptamine): 0.15 ± 0.06; EC50 relative to both 5-HT and 5-FT (5-HT3A receptors [2]; EC50 fold higher than 5-HT and 5-FT, both receptor types): 10–100 fold; potency (EC50) relative to 5-HT (5-HT3A receptors [2]; fold less potent / EC50 higher than 5-HT, stated for 5-HT3A and 5-HT3AB receptors together): ~100 fold; EC50 (5-HT3AB receptors [6]; 5-HT3AB receptors in Xenopus oocytes, mean ± SEM, read-out: pEC50 (converted)): 60.3 µM; EC50 (5-HT3AB receptors [6]; [12]): 61 µM; Ki (5-HT3AB receptors [3]; [13]): 15.5 ± 3.5 µM; Ki (5-HT3A receptors [4]; [14]): 4.8 ± 0.9 µM |

Reference: publication PMC2649378 (European Journal of Pharmacology, 2008)
